Assay results published in the supplement of paper PMC13380429.

What was measured:
Settings in all cases: 72 h
Caco-2 [1] = experiment: cell viability relative to DMSO; higher = less toxic
U2OS [2] = experiment: as above
Vero E6 [3] = experiment: as above
Calu-3 [4] = experiment: as above
HepG2 [5] = experiment: as above
Caco-2 [6] = experiment: drug sensitivity score (DSS) for viability; higher = more toxic; extreme values may be limits of the assay
U2OS [7] = experiment: as above
Vero E6 [8] = experiment: as above
Calu-3 [9] = experiment: as above
HepG2 [10] = experiment: as above
Caco-2 [11] = experiment: relative viability EC50 (midpoint between 100% and the lowest measured viability); higher = less toxic
U2OS [12] = experiment: as above
Vero E6 [13] = experiment: as above
Calu-3 [14] = experiment: as above
HepG2 [15] = experiment: as above

Structure (SMILES) | cell viability (Caco-2 [1]; 1 nM) | cell viability (Caco-2 [1]; 10 nM) | cell viability (Caco-2 [1]; 100 nM) | cell viability (Caco-2 [1]; 1000 nM) | cell viability (Caco-2 [1]; 10000 nM) | cell viability (U2OS [2]; 1 nM) | cell viability (U2OS [2]; 10 nM) | cell viability (U2OS [2]; 100 nM) | cell viability (U2OS [2]; 1000 nM) | cell viability (U2OS [2]; 10000 nM) | cell viability (Vero E6 [3]; 1 nM) | cell viability (Vero E6 [3]; 10 nM) | cell viability (Vero E6 [3]; 100 nM) | cell viability (Vero E6 [3]; 1000 nM) | cell viability (Vero E6 [3]; 10000 nM) | cell viability (Calu-3 [4]; 1 nM) | cell viability (Calu-3 [4]; 10 nM) | cell viability (Calu-3 [4]; 100 nM) | cell viability (Calu-3 [4]; 1000 nM) | cell viability (Calu-3 [4]; 10000 nM) | cell viability (HepG2 [5]; 1 nM) | cell viability (HepG2 [5]; 10 nM) | cell viability (HepG2 [5]; 100 nM) | cell viability (HepG2 [5]; 1000 nM) | cell viability (HepG2 [5]; 10000 nM) | drug sensitivity score (Caco-2 [6]) | drug sensitivity score (U2OS [7]) | drug sensitivity score (Vero E6 [8]) | drug sensitivity score (Calu-3 [9]) | drug sensitivity score (HepG2 [10]) | relative viability EC50 (Caco-2 [11]) | relative viability EC50 (U2OS [12]) | relative viability EC50 (Vero E6 [13]) | relative viability EC50 (Calu-3 [14]) | relative viability EC50 (HepG2 [15])
Cc1ccc(S(=O)(=O)NC2c3ccccc3Oc3ccccc32)cc1 [AH-7614] | 96.5% | 87.3% | 91.7% | 92.9% | 93.4% | 105% | 95.8% | 102% | 102% | 100% | 95.8% | 100% | 99.1% | 98% | 103% | 101% | 108% | 96.5% | 96.5% | 113% | 96.4% | 91.5% | 103% | 110% | 93% | 0 | 0 | 0 | 0 | 0 | > 10 µM | > 10 µM | > 10 µM | > 10 µM | > 10 µM
CC(C)(C)[C@]1(O)CC2OC(=O)CC23C(=O)OC2OC(=O)[C@H](O)C231 (stereo not given in full) [bilobalide] | 98% | 97.6% | 97.2% | 107% | 89.7% | 94.7% | 104% | 94% | 98.5% | 97.7% | 104% | 104% | 105% | 96.6% | 103% | 101% | 98.9% | 109% | 108% | 116% | 95.1% | 97.1% | 104% | 117% | 108% | 0 | 0 | 0 | 0 | 0 | > 10 µM | > 10 µM | > 10 µM | > 10 µM | > 10 µM
C=C1CC[C@H](O)C/C1=C/C=C1\CCC[C@]2(C)[C@@H]([C@H](C)CCCC(C)C)CC[C@@H]12 [cholecalciferol] | 95.6% | 88.2% | 101% | 103% | 144% | 94.6% | 103% | 96.4% | 100% | 99.4% | 92.1% | 85.5% | 102% | 93.8% | 120% | 100% | 102% | 96.5% | 108% | 95.5% | 90.3% | 82.4% | 92.8% | 93.4% | 84.6% | 0 | 0 | 0 | 0 | 0 | > 10 µM | > 10 µM | > 10 µM | > 10 µM | > 10 µM
CCn1nc(C(=O)O)c(=O)c2cc3c(cc21)OCO3 [cinoxacin] | 99.3% | 100% | 100% | 106% | 98.3% | 95.1% | 97.3% | 94.2% | 98.5% | 99.5% | 91.4% | 102% | 92.1% | 89.4% | 102% | 99.3% | 98.6% | 89.4% | 93.9% | 98.7% | 100% | 86.1% | 110% | 85.1% | 103% | 0 | 0 | 0 | 0 | 0 | > 10 µM | > 10 µM | > 10 µM | > 10 µM | > 10 µM
O=c1[nH]cnc2c1ncn2[C@H]1CC[C@@H](CO)O1 [didanosine] | 107% | 88.7% | 97.9% | 85.3% | 108% | 99.4% | 93.6% | 102% | 101% | 107% | 96% | 97.3% | 95.2% | 98% | 107% | 96.3% | 85% | 114% | 106% | 99.9% | 99.6% | 84.8% | 90.7% | 90.8% | 105% | 0 | 0 | 0 | 0 | 0 | > 10 µM | > 10 µM | > 10 µM | > 10 µM | > 10 µM
Cc1cc(NC(=O)C(c2ccccc2)N2CCCc3ccccc32)no1 (stereo not given) [CIM-0216] | 97.1% | 101% | 98.2% | 97.4% | 114% | 98.7% | 104% | 97.4% | 101% | 97% | 104% | 99.2% | 96.3% | 101% | 101% | 103% | 98.5% | 87.7% | 113% | 111% | 104% | 103% | 103% | 90.1% | 98.3% | 0 | 0 | 0 | 0 | 0 | > 10 µM | > 10 µM | > 10 µM | > 10 µM | > 10 µM
O=C(CN1CCNCC1)NC1CCCCC1 [esaprazole] | 105% | 92.2% | 105% | 98.5% | 98.6% | 99% | 100% | 102% | 100% | 108% | 103% | 107% | 99.1% | 107% | 98.5% | 98.3% | 98% | 101% | 104% | 97.1% | 104% | 99.5% | 100% | 102% | 90.1% | 0 | 0 | 0 | 0 | 0 | > 10 µM | > 10 µM | > 10 µM | > 10 µM | > 10 µM
CO/N=C(\C(=O)N[C@@H]1C(=O)N2C(C(=O)O)=CCS[C@H]12)c1csc(N)n1 [ceftizoxim] | 89.5% | 100% | 92.1% | 103% | 95.7% | 97.7% | 99.2% | 94.5% | 98.8% | 98.7% | 102% | 99.2% | 95.2% | 95.6% | 105% | 97.2% | 93.6% | 103% | 105% | 93.4% | 97.5% | 96.1% | 107% | 103% | 103% | 0 | 0 | 0 | 0 | 0 | > 10 µM | > 10 µM | > 10 µM | > 10 µM | > 10 µM
CCCCNc1ncc(-c2ccc(CN3CCOCC3)cn2)c(N[C@H]2CC[C@H](O)CC2)n1 [UNC2250] | 97.1% | 103% | 105% | 108% | 103% | 97.9% | 98.8% | 99.9% | 100% | 94.8% | 101% | 99.6% | 94.5% | 91.9% | 99.1% | 102% | 102% | 94.7% | 108% | 98.9% | 108% | 102% | 109% | 97.7% | 100% | 0 | 0 | 0 | 0 | 0 | > 10 µM | > 10 µM | > 10 µM | > 10 µM | > 10 µM
CCOC(=O)[C@H](CCc1ccccc1)N[C@@H](C)C(=O)N1Cc2ccccc2C[C@H]1C(=O)O [quinapril] | 95.7% | 99.6% | 92.1% | 96.3% | 88.5% | 98.1% | 100% | 95.1% | 101% | 93.9% | 104% | 97.9% | 102% | 90.4% | 97.8% | 95.2% | 102% | 103% | 97% | 96.5% | 106% | 98.9% | 110% | 93.6% | 94.7% | 0 | 0 | 0 | 0 | 0 | > 10 µM | > 10 µM | > 10 µM | > 10 µM | > 10 µM
O=C(NC1CCN(CCc2c[nH]c3ccccc23)CC1)c1ccccc1 [indoramin] | 89.4% | 98.2% | 101% | 101% | 99.5% | 95.3% | 99.3% | 97.5% | 104% | 100% | 96.7% | 94.4% | 98.7% | 99.7% | 102% | 90.4% | 92.8% | 103% | 101% | 107% | 100% | 92.9% | 105% | 98.9% | 95.9% | 0 | 0 | 0 | 0 | 0 | > 10 µM | > 10 µM | > 10 µM | > 10 µM | > 10 µM
CC(C)NCCN(C(C)C)S(=O)(=O)c1ccc(Cl)cc1Cl [RN-1734] | 105% | 95.1% | 97.1% | 94.6% | 97.4% | 99.3% | 98.4% | 101% | 95.4% | 94.7% | 97% | 100% | 94.2% | 96.7% | 91.2% | 97.1% | 101% | 95.6% | 99.8% | 99.6% | 99.8% | 89.7% | 102% | 96.8% | 85.9% | 0 | 0 | 0 | 0 | 0.4 | > 10 µM | > 10 µM | > 10 µM | > 10 µM | > 10 µM
O=C1c2cccnc2OC[C@@H]2CCCN12 | 108% | 99.6% | 100% | 95.6% | 100% | 103% | 98.6% | 95.9% | 97.7% | 96.4% | 93.8% | 98.5% | 90.5% | 91% | 103% | 103% | 87.1% | 98.9% | 101% | 91.1% | 96.9% | 98.8% | 96.1% | 102% | 99.2% | 0 | 0 | 0 | 0 | 0 | > 10 µM | > 10 µM | > 10 µM | > 10 µM | > 10 µM
